ChEMBL document CHEMBL1129417, “Glucose transport-enhancing and hypoglycemic activity of 2-methyl-2-phenoxy-3-phenylpropanoic acids” (1996)

What was measured:
Type in all cases: functional
3T3-L1 [1] = assay: compound was evaluated for their acute effects in vitro by measuring 2-Deoxyglucose (2DG) uptake in vehicle treated 3T3-L1 adipocytes at concentration of 3 micro M
3T3-L1 [2] = assay: In vitro measurements of 2-Deoxyglucose (2DG) uptake in vehicle treated 3T3-L1 adipocytes at 60 uM dose.
3T3-L1 [3] = assay: Acute effects in vitro by measuring 2-deoxyglucose (2DG) uptake in vehicle treated 3T3-L1 adipocytes at 30 uM dose.
Mus musculus [4] = assay: In vivo hypoglycemic activity expressed as glucose lowering relative to positive control in 6-8 week old C57BL/6J ob/ob mouse at 5 mg/kg.
3T3-L1 [5] = assay: compound was evaluated for their acute effects in vitro by measuring 2-Deoxyglucose (2DG) uptake in vehicle treated 3T3-L1 adipocytes at concentration of 10 micro M
3T3-L1 [6] = assay: compound was evaluated for their acute effects in vitro by measuring 2-Deoxyglucose (2DG) uptake in vehicle treated 3T3-L1 adipocytes at concentration of 30 micro M
Mus musculus [7] = assay: In vivo hypoglycemic activity expressed as glucose lowering relative to positive control in 6-8 week old C57BL/6J ob/ob mouse at 1 mg/kg.
Mus musculus [8] = assay: In vivo hypoglycemic activity expressed as glucose lowering relative to positive control in 6-8 week old C57BL/6J ob/ob mouse at 10 mg/kg
Rattus norvegicus [9] = organism: Rattus norvegicus; assay: Inhibition of gluconeogenesis in rat; conditions: Rattus norvegicus; read-out: ED50
Mus musculus [10] = assay: compound was tested in vivo for hypoglycemic activity expressed as Glucose lowering relative to positive control in 6-8 week old C57BL/6J ob/ob mouse at 0.5 mg/kg
Mus musculus [11] = assay: compound was tested in vivo for hypoglycemic activity in 6-8 week old C57BL/6J ob/ob mouse at 10 mg/kg
Rattus norvegicus [12] = organism: Rattus norvegicus; assay: Compound was tested for inhibition of gluconeogenesis; conditions: Rattus norvegicus; read-out: ED50
Mus musculus [13] = assay: compound was tested in vivo for hypoglycemic activity expressed as Glucose lowering relative to positive control in 6-8 week old C57BL/6J ob/ob mouse at 50 mg/kg
3T3-L1 [14] = assay: In vitro measurements 2-Deoxyglucose (2DG) uptake in vehicle treated 3T3-L1 adipocytes at 100 uM dose.
3T3-L1 [15] = assay: compound was evaluated for their acute effects in vitro by measuring 2-Deoxyglucose (2DG) uptake in vehicle treated 3T3-L1 adipocytes at 1 uM dose.
3T3-L1 [16] = assay: Acute effects in vitro by measuring 2-deoxyglucose (2DG) uptake in vehicle treated 3T3-L1 adipocytes at 10 uM dose.
3T3-L1 [17] = assay: compound was evaluated for their acute effects in vitro by measuring 2-Deoxyglucose (2DG) uptake in vehicle treated 3T3-L1 adipocytes at 3 uM dose.
3T3-L1 [18] = assay: In vitro by measurements of 2-Deoxyglucose (2DG) uptake in vehicle treated 3T3-L1 adipocytes at 3 uM dose.
3T3-L1 [19] = assay: compound was evaluated for their acute effects in vitro by measuring 2-Deoxyglucose (2DG) uptake in vehicle treated 3T3-L1 adipocytes at 30 uM dose.
3T3-L1 [20] = assay: compound was evaluated for their acute effects in vitro by measuring 2-Deoxyglucose (2DG) uptake in vehicle treated 3T3-L1 adipocytes at 10 uM dose.
L6 = assay: compound was evaluated for their acute effects in vitro by measuring 2-Deoxyglucose (2DG) uptake in vehicle treated L6 […] at 60 uM dose.
Mus musculus [21] = assay: compound was tested in vivo for hypoglycemic activity in 6-8 week old C57BL/6J ob/ob mouse at 50 mg/kg
3T3-L1 [22] = assay: compound was evaluated for their acute effects in vitro by measuring 2-Deoxyglucose (2DG) uptake in vehicle treated 3T3-L1 adipocytes at 100 uM dose.

SMILES | Basal uptake (3T3-L1 [3]) | Hypoglycemic activity (Mus musculus [4]) | Hypoglycemic activity (Mus musculus [8]) | ED50 (Rattus norvegicus [9]) | Basal uptake (3T3-L1 [15]) | Basal uptake (3T3-L1 [16]) | also measured
CCCc1ccc(CC(C)(Oc2ccc(C(C)C)cc2)C(=O)[O-])cc1.[Na+] (stereo unspecified) | 97% | 134% | 113% | 0.5 mg/kg | – | – | Basal uptake (3T3-L1 [1]): 103%; Basal uptake (3T3-L1 [2]): 282%; Basal uptake (3T3-L1 [5]): 100%; Basal uptake (3T3-L1 [6]): 233%; Hypoglycemic activity (Mus musculus [7]): 70%; Hypoglycemic activity (Mus musculus [10]): 69%
CCc1cccc(CC(C)(Oc2ccc(C(C)C)cc2)C(=O)[N-]S(=O)(=O)C(F)(F)F)c1.[Na+] (stereo unspecified) | – | – | – | – | – | – | Hypoglycemic activity (Mus musculus [11]): 43%; ED50 (Rattus norvegicus [12]): > 10 mg/kg
COc1ccc(CC(Oc2ccc(C(C)C)cc2)C(=O)O)cc1 (stereo unspecified) | – | – | – | > 50 mg/kg | – | – | Hypoglycemic activity (Mus musculus [13]): <0%; Basal uptake (3T3-L1 [14]): 127%
CC(C)c1ccc(OC(C)(Cc2ccccc2)C(=O)[O-])cc1.[Na+] (stereo unspecified) | – | – | 3% | > 10 mg/kg | 100% | 126% | Basal uptake (3T3-L1 [17]): 162%
CC(C)c1ccc(OC(Cc2ccc3ccccc3c2)C(=O)O)cc1 (stereo unspecified) | – | – | – | 50 mg/kg | – | – | Hypoglycemic activity (Mus musculus [13]): 45%; Basal uptake (3T3-L1 [14]): 143%
CC(C)c1ccc(OC(C)(Cc2ccccc2-c2ccccc2)C(=O)[O-])cc1.[Na+] (stereo unspecified) | 167% | – | 54% | 10 mg/kg | 97% | 228% | Basal uptake (3T3-L1 [18]): 148%
CC(C)c1ccc(OC(C)(C[N-]SC(F)(F)F)Cc2ccc(Cl)cc2)cc1.[Na+] (stereo unspecified) | – | – | – | – | – | – | Basal uptake (3T3-L1 [19]): 159%; Hypoglycemic activity (Mus musculus [11]): <0%; ED50 (Rattus norvegicus [12]): > 10 mg/kg; Basal uptake (3T3-L1 [17]): 127%; Basal uptake (3T3-L1 [20]): 132%
CC(C)c1ccc(OC(C(=O)O)c2ccc(Cl)cc2)cc1 (stereo unspecified) | – | – | – | > 50 mg/kg | – | – | Hypoglycemic activity (Mus musculus [13]): <0%; Basal uptake (3T3-L1 [14]): 248%
CC(C)c1ccc(CC(C)(Cc2ccc(Cl)cc2)C(=O)O)cc1 (stereo unspecified) | – | – | – | – | – | – | Hypoglycemic activity (Mus musculus [11]): 20%; ED50 (Rattus norvegicus [12]): > 10 mg/kg
CC(Cc1ccc(Cl)cc1)(Oc1ccc(C2CCSc3ccccc32)cc1)C(=O)[O-].[Na+] (stereo unspecified) | 157% | – | 38% | 10 mg/kg | 98% | 118% | Basal uptake (3T3-L1 [18]): 130%
CC(C)c1ccc(OC(C)(Cc2ccc(Cl)cc2)C(=O)NS(=O)(=O)C(F)(F)F)cc1 (stereo unspecified) | 273% | – | – | 5 mg/kg | 108% | 232% | Basal uptake (3T3-L1 [18]): 130%; Basal uptake (3T3-L1 [2]): 79%
CC(C)c1ccc(OC(C)(Cc2ccc(C(F)(F)F)cc2)C(=O)O)cc1 (stereo unspecified) | – | 65% | – | < 5 mg/kg | – | – | Basal uptake (L6): 103%
CCCc1cccc(CC(C)(Oc2ccc(C(C)C)cc2)C(=O)[O-])c1.[Na+] (stereo unspecified) | 229% | 82% | 123% | 1 mg/kg | 123% | 128% | Basal uptake (3T3-L1 [18]): 136%; Hypoglycemic activity (Mus musculus [7]): 47%
CCc1ccc(CC(C)(Oc2ccc(C(=O)c3ccccc3)cc2)C(=O)O)cc1 (stereo unspecified) | – | 108% | 107% | 0.5 mg/kg | – | – | Hypoglycemic activity (Mus musculus [7]): 65%; Hypoglycemic activity (Mus musculus [10]): 60%
CC(Cc1ccc2c(c1)CCC2)(Oc1ccc(Cc2ccccc2)cc1)C(=O)[O-].[Na+] (stereo unspecified) | – | 102% | 120% | 0.5 mg/kg | – | – | Hypoglycemic activity (Mus musculus [7]): 78%; Hypoglycemic activity (Mus musculus [10]): 50%
CC(C)c1ccc(OC(C)(Cc2cccc(-c3ccccc3)c2)C(=O)[O-])cc1.[Na+] (stereo unspecified) | – | 110% | 83% | 0.5 mg/kg | – | 76% | Basal uptake (3T3-L1 [19]): 118%; Basal uptake (3T3-L1 [1]): 109%; Basal uptake (3T3-L1 [18]): 87%; Basal uptake (3T3-L1 [5]): 118%; Basal uptake (3T3-L1 [6]): 193%; Hypoglycemic activity (Mus musculus [7]): 78%; Hypoglycemic activity (Mus musculus [10]): 46%
CC(C)c1ccc(OC(C)(C(=O)NS(=O)(=O)C(F)(F)F)C(C)c2ccc(Cl)cc2)cc1 (stereo unspecified) | 113% | – | 7% | > 10 mg/kg | 94% | 248% | –
C1CCC(NC2CCCCC2)CC1.CC(C)c1ccc(OC(Cc2ccc(Cl)c(Cl)c2)C(=O)O)cc1 (stereo unspecified) | – | – | – | – | – | – | Hypoglycemic activity (Mus musculus [21]): 65%; ED50 (Rattus norvegicus [12]): < 50 mg/kg; Basal uptake (3T3-L1 [22]): 225%
